Data from the supplement of paper PMC10307832.

Assays:
Assay in all cases: relative viability (nuclei count vs DMSO), 5 days (fraction); higher = more cells survive
XMD13-2 + Dasatinib = compound: C1CC1C(=O)NC2=NNC3=C2C=CC(=C3)C4=CC(=CC=C4)C(=O)NC5CC5 [XMD13-2] + Cc1nc(Nc2ncc(C(=O)Nc3c(C)cccc3Cl)s2)cc(N2CCN(CCO)CC2)n1 [Dasatinib] (partner 0.075 µM)
Method in brief: (§1)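 Lung cancer cell lines in 1536-well plates got either a single drug or a fixed anchor-drug dose together with five library-drug doses (not always all listed) in √10 steps, by pin tool, on the day after seeding. Nuclei were counted after 5 days, and relative viability is the treated-to-vehicle ratio of nuclei counts. Values are medians of duplicate plates.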

XMD13-2 + Vorinostat = compound: C1CC1C(=O)NC2=NNC3=C2C=CC(=C3)C4=CC(=CC=C4)C(=O)NC5CC5 [XMD13-2] + O=C(CCCCCCC(=O)Nc1ccccc1)NO [Vorinostat] (partner 1 µM)
Method in brief: as §1

ALW-II-49-7 + Luminespib = compound: Cc1ccc(C(=O)Nc2cccc(C(F)(F)F)c2)cc1Nc1cncc(C(N)=O)c1 [ALW-II-49-7] + CCNC(=O)c1noc(-c2cc(C(C)C)c(O)cc2O)c1-c1ccc(CN2CCOCC2)cc1 [Luminespib] (partner 0.01 µM)
Method in brief: as §1

ALW-II-49-7 + Pemetrexed = compound: Cc1ccc(C(=O)Nc2cccc(C(F)(F)F)c2)cc1Nc1cncc(C(N)=O)c1 [ALW-II-49-7] + Nc1nc2[nH]cc(CCc3ccc(C(=O)N[C@@H](CCC(=O)O)C(=O)O)cc3)c2c(=O)[nH]1 [Pemetrexed] (partner 0.2 µM)
Method in brief: as §1

| Cell Line | relative viability (XMD13-2 + Dasatinib; first compound 0.05 µM) | relative viability (XMD13-2 + Dasatinib; first compound 0.1581 µM) | relative viability (XMD13-2 + Dasatinib; first compound 0.5 µM) | relative viability (XMD13-2 + Dasatinib; first compound 1.581 µM) | relative viability (XMD13-2 + Dasatinib; first compound 5 µM) | relative viability (XMD13-2 + Vorinostat; first compound 0.05 µM) | relative viability (XMD13-2 + Vorinostat; first compound 0.1581 µM) | relative viability (XMD13-2 + Vorinostat; first compound 0.5 µM) | relative viability (XMD13-2 + Vorinostat; first compound 1.581 µM) | relative viability (XMD13-2 + Vorinostat; first compound 5 µM) | relative viability (ALW-II-49-7 + Luminespib; first compound 0.08 µM) | relative viability (ALW-II-49-7 + Luminespib; first compound 0.253 µM) | relative viability (ALW-II-49-7 + Luminespib; first compound 0.8 µM) | relative viability (ALW-II-49-7 + Luminespib; first compound 2.53 µM) | relative viability (ALW-II-49-7 + Luminespib; first compound 8 µM) | relative viability (ALW-II-49-7 + Pemetrexed; first compound 0.08 µM) | relative viability (ALW-II-49-7 + Pemetrexed; first compound 0.253 µM) | relative viability (ALW-II-49-7 + Pemetrexed; first compound 0.8 µM) | relative viability (ALW-II-49-7 + Pemetrexed; first compound 2.53 µM) | relative viability (ALW-II-49-7 + Pemetrexed; first compound 8 µM) |
| --- | --- | --- | --- | --- | --- | --- | --- | --- | --- | --- | --- | --- | --- | --- | --- | --- | --- | --- | --- | --- |
| LXF-289 | 0.301 | 0.239 | 0.242 | 0.141 | 0.205 | 0.864 | 0.767 | 0.86 | 0.959 | 0.808 | 0.731 | 0.626 | 0.825 | 0.688 | 0.848 | 0.822 | 0.869 | 0.958 | 1.05 | 0.959 |
| NCI-H23 | 0.907 | 0.725 | 0.82 | 0.748 | 0.99 | 0.681 | 0.46 | 0.625 | 0.646 | 0.675 | 0.188 | 0.22 | 0.228 | – | 0.191 | 0.59 | 0.672 | 0.752 | 0.783 | 0.511 |
| NCI-H322M | 0.237 | 0.239 | 0.24 | 0.263 | 0.283 | 0.927 | 0.984 | 0.914 | – | 1.05 | 0.897 | 0.762 | 0.965 | 0.868 | 0.833 | 0.609 | 0.79 | 0.659 | 0.682 | 0.537 |
| NCI-H358 | 0.201 | 0.162 | 0.142 | 0.174 | 0.171 | 0.751 | 0.687 | 0.692 | 0.489 | 0.442 | 0.272 | 0.318 | 0.244 | 0.322 | 0.245 | 0.163 | 0.181 | 0.189 | 0.148 | 0.155 |
| NCI-H441 | 0.567 | 0.668 | 0.54 | 0.625 | 0.516 | 0.854 | 1.01 | 0.97 | 0.87 | 0.839 | 0.332 | 0.32 | 0.313 | 0.35 | 0.243 | 0.27 | 0.25 | 0.26 | 0.234 | 0.211 |
| NCI-H460 | 0.636 | 0.466 | 0.525 | 0.578 | 0.626 | 1 | 0.723 | 0.828 | 0.696 | 0.766 | 0.0293 | 0.0319 | 0.0397 | 0.0303 | 0.0275 | 0.0507 | 0.0651 | 0.0651 | 0.0782 | 0.0738 |
| NCI-H520 | 0.213 | 0.261 | 0.208 | 0.231 | 0.182 | 0.799 | 0.743 | 0.698 | 0.869 | 0.414 | 0.219 | 0.216 | 0.232 | 0.206 | 0.237 | 0.655 | 0.673 | 0.724 | 0.666 | 0.558 |
